# Results as given in US8426447B2, “Spiro-tricyclic ring compounds as beta-secretase modulators and methods of use” (Amgen Inc., priority 2008, dated 2013).
# pIC50: −log10 of the molar value.
# Experiments:
# BACE1 [1] = target: T1, BACE1 (Homo sapiens, UniProt P56817); assay: In Vitro BACE Cell-based Assay (HEK cell assay): Aβ40 in conditioned medium of cells stably expressing Amyloid Precursor Protein, sandwich ELISA; conditions: read-out: HEK cell assay; for IC50: Table III, IC50's in uM ranges
# T1 sequence (P56817 46-501, species assumed): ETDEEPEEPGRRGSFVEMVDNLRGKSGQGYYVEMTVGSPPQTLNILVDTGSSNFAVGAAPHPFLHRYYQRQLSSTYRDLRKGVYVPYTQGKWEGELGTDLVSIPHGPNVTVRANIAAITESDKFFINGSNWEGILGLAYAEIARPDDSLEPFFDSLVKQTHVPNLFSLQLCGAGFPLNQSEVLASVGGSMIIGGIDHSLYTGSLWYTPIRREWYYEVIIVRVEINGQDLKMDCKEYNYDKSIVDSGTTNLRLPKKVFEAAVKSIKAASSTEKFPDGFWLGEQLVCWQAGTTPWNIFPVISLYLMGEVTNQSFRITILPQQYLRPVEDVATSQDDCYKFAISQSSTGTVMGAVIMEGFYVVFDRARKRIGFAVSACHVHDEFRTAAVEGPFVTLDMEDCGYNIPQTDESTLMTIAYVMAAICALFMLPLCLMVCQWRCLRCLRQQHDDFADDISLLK
# Procedure, shortened: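 HEK cells stably expressing APP were treated 24 h with compound in 10-point dose response starting at 100 or 10 μM (0.1% DMSO). Secreted Aβ40 quantified by sandwich ELISA (pAb40 capture, biotinylated 6E10 detection, europium time-resolved fluorescence), with IC50 derived from percent inhibition versus concentration.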
# BACE1 [2] = target: T1, BACE1; assay: In Vitro Enzymatic BACE FRET (Fluorescence Resonance Energy Transfer) Assay; type: biochemical; conditions: read-out: BACE1 FRET assay; for IC50: Table III, IC50's in uM ranges
# Procedure, shortened: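 Cleavage of a 50 nM internally quenched peptide substrate is followed by fluorescence after a one-hour reaction in acidic acetate buffer, pH 4.2, terminated by Tris.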
# [3] = HEK cell-based assay, Aβ40 in conditioned medium, IC50 class symbols
# [4] = in vitro BACE FRET enzyme assay, IC50 class symbols
SMILES,"pIC50 (BACE1 [1]; Table IV, class symbols)","pIC50 (BACE1 [2]; Table IV, class symbols)",pIC50 (BACE1 [2]),further results
NC1=N[C@]2(CO1)c1cc(C(=O)CCCO)ccc1Oc1ccc(-c3cccnc3)cc12 [compound 650],6.00 to 7.00,> 7.00,,
COC(=O)c1ccc2c(c1)[C@@]1(COC(N)=N1)c1cc(OCC(C)(C)C)ccc1O2 [compound 850],5.30 to 6.00,6.00 to 7.00,,
CC(=O)COc1ccc2c(c1)[C@]1(COC(N)=N1)c1cc(C#CC3CC3)ccc1O2 [compound 200],,,,IC50 (BACE1 [1]): 0.1 to 1 µM; IC50 (BACE1 [2]): 0.1 to 1 µM
NC1=N[C@@]2(CO1)c1cc(-c3cc(Cl)ccc3F)ccc1Oc1cnc(-c3ccncc3)cc12 [compound 330],,,,pIC50 (BACE1 [1]; [3]): > 7.00; pIC50 (BACE1 [2]; [4]): > 7.00
NC1=N[C@@]2(CO1)c1cc(-c3cccc(F)c3)ccc1Oc1cnc(C3=CCOCC3)cc12 [compound 485],,,> 7.00,pIC50 (BACE1 [1]; HEK cells): > 7.00
C[C@@H]1OC(N)=N[C@@]12c1cc(OCC(C)(C)C)ccc1Oc1ccc(-c3cncnc3)cc12 [126b],,,,IC50 (BACE1 [1]): 0.1 to 1 µM; IC50 (BACE1 [2]): < 0.1 µM
NC1=N[C@@]2(CO1)c1cc(-c3cccnc3)ccc1Oc1cnc(C3=CCCCC3)cc12 [compound 848],> 7.00,> 7.00,,
COc1ccc2c(c1)[C@]1(COC(N)=N1)c1cc(-c3cccc4cnccc34)ccc1O2 [compound 588],5.30 to 6.00,6.00 to 7.00,,
COCC[C@H]1CN(c2ccc3c(c2)[C@]2(COC(N)=N2)c2cc(-c4cccnc4)ccc2O3)CCO1 [compound 361],,,,pIC50 (BACE1 [1]; [3]): > 7.00; pIC50 (BACE1 [2]; [4]): 6.00 to 7.00
"COC(C)(C)CCc1ccc2c(c1)C1(COC(N)=N1)c1cc(-c3cccnc3)cnc1O2 (racemic) [Example 110, rac-7-(3-methoxy-3-methylbutyl)-3-(3-pyridinyl)spiro[chromeno[2,3-b]pyridine-5,4′-[1,3]oxazol]-2′-amine]",,,,IC50 (BACE1 [1]): 0.1 to 1 µM; IC50 (BACE1 [2]): < 0.1 µM
COc1cccc(-c2ccc3c(c2)[C@]2(COC(N)=N2)c2cc(-c4cncnc4)ccc2O3)c1 [compound 893],6.00 to 7.00,> 7.00,,
COC(C)(C)C#Cc1cc(F)c2c(c1)[C@@]1(COC(N)=N1)c1cc(-c3ccc(F)nc3)ccc1O2 [compound 645],5.30 to 6.00,6.00 to 7.00,,
CC(C)(F)COc1cnc2c(c1)[C@]1(COC(N)=N1)c1cc(-c3cccc(C#N)c3)ccc1O2 [compound 357],,,,pIC50 (BACE1 [1]; [3]): > 7.00; pIC50 (BACE1 [2]; [4]): > 7.00
"COc1ccc2c(c1)[C@]1(N=C(N)O[C@H]1C)c1cc(-c3cncnc3)ccc1O2 (single isomer, unassigned) [Example 125a]",,,,IC50 (BACE1 [1]): > 5 µM; IC50 (BACE1 [2]): > 5 µM
COC(C)(C)C#Cc1cnc2c(c1)[C@@]1(COC(N)=N1)c1cc(-c3cccnc3)ccc1O2 [compound 719],,,6.00 to 7.00,pIC50 (BACE1 [1]): 6.00 to 7.00
COc1ccc2c(c1)[C@@]1(COC(N)=N1)c1cc(-c3cncnc3)cnc1O2 [compound 669],,,5.30 to 6.00,pIC50 (BACE1 [1]): 5.30 to 6.00
CC1(C)C[C@H](c2cc3c(cn2)Oc2ccc(-c4cccnc4F)cc2[C@@]32COC(N)=N2)CCO1 [compound 432],,,> 7.00,pIC50 (BACE1 [1]; HEK cells): > 7.00
NC1=N[C@@]2(CO1)c1cc(-c3cccnc3)ccc1Oc1ccc(N3CCCC3=O)cc12 [compound 863],6.00 to 7.00,> 7.00,,
NC1=N[C@@]2(CO1)c1cc(-c3cccnc3)ccc1Oc1ccc(-c3ccc(F)nc3)cc12 [compound 969],,,> 7.00,pIC50 (BACE1 [1]): > 7.00
NC1=N[C@@]2(CO1)c1cc(-c3cccnc3)ccc1Oc1cnc(C3CCOCC3)cc12 [compound 801],> 7.00,> 7.00,,
NC1=N[C@]2(CO1)c1cc(-c3cccnc3)ccc1Oc1c(F)cc(C3=CCOCC3)cc12 [compound 644],5.30 to 6.00,6.00 to 7.00,,
COC(=O)/C=C/c1ccc2c(c1)[C@]1(COC(N)=N1)c1cc(-c3cccnc3)ccc1O2 [compound 947],,,6.00 to 7.00,pIC50 (BACE1 [1]): 6.00 to 7.00
CC(=O)c1sccc1-c1ccc2c(c1)[C@@]1(COC(N)=N1)c1cc(OCC(C)(C)C)ccc1O2 [compound 835],< 5.30,5.30 to 6.00,,
CCCOc1cc2c(cc1F)Oc1ccc(-c3cncnc3)cc1[C@@]21COC(N)=N1 [compound 940],,,> 7.00,pIC50 (BACE1 [1]): > 7.00
C=C(C)COc1ccc2c(c1)[C@]1(COC(N)=N1)c1cc(-c3cccnc3)ccc1O2 [compound 146],,,,IC50 (BACE1 [1]): 0.1 to 1 µM; IC50 (BACE1 [2]): < 0.1 µM
COc1ncc(-c2ccc3c(c2)[C@@]2(COC(N)=N2)c2cc(OCC(C)(C)C)ccc2O3)cn1 [compound 977],,,6.00 to 7.00,pIC50 (BACE1 [1]): 5.30 to 6.00
Cc1ccc(-n2ccc3c(c2=O)[C@@]2(COC(N)=N2)c2cc(-c4cccnc4)ccc2O3)cc1 [compound 503],,,< 5.30,pIC50 (BACE1 [1]; HEK cells): 5.30 to 6.00
